The source of these data is PMC3792051, “Polyenylpyrrole Derivatives Inhibit NLRP3 Inflammasome Activation and Inflammatory Mediator Expression by Reducing Reactive Oxygen Species Production and Mitogen-Activated Protein Kinase Activation” (PLoS ONE, 2013).

Assay [1] has as its system LPS-activated RAW 264.7 macrophages. As to the kind of experiment: NF-κB signaling (IKK-α/IκB-α Western blot, p65 nuclear translocation ELISA). Format: cell-based, murine. The conditions noted are these: RAW 264.7, 10-40 µM 30 min, LPS 20 min. How it is done: (§1) Cells were washed twice with ice-cold phosphate-buffered saline (PBS) and lysed on ice for 5 min with lysis buffer (20 mM Tris-HCl, pH 7.5, 150 mM NaCl, 1 mM Na 2EDTA, 1 mM EGTA, 1% Triton X-100, 2.5 mM sodium pyrophosphate, 1 mM beta-glycerophosphate, 1 mM Na 3VO4, 1 µg/ml of leupeptin, 1 mM PMSF, protease inhibitor cocktail). The lysate was then centrifuged at 12,000 x g at 4 °C for 10 min and the pellet discarded. Proteins in the supernatant were separated by SDS-PAGE and electrotransferred to a PVDF membrane (EMD Millipore Corporation), which was then blocked by incubation for 1 h at room temperature in blocking buffer [(5% nonfat milk in PBS containing 0.1% Tween 20 (PBST)], then incubated for 2 h at room temperature with the primary antibody diluted in blocking buffer. After three washes in PBST, the membrane was incubated for 1 h at room temperature with an appropriate HRP-conjugated secondary antibody diluted in blocking buffer and developed using an enhanced chemiluminescence Western blot detection system (EMD Millipore Corporation).
(§2) Nuclear proteins were extracted from RAW 264.7 and J774A.1 cells using a Nuclear Extract Kit (Active Motif) according to the manufacturer’s instructions and nuclear NF-κB p65 activation quantified using an ELISA-based TransAM NF-κB kit (Active Motif, Tokyo, Japan) according to the manufacturer’s protocol by reading the absorbance at 450 nm with a microplate absorbance reader (Bio-Rad Laboratories, Inc) and a reference wavelength of 655 nm.
(§3) Following LPS stimulation, IκB in the complex is phosphorylated by IκB kinase (IKK), ubiquitinated, and rapidly degraded in proteasomes, thus releasing NF-κB [30].
(§4) Figure 6 Effect of compound 1h on NF-κB activation in LPS-activated macrophages. (A) RAW 264.7 macrophages or (B) J774A.1 macrophages (both 5 × 10^5/ml; 1 ml) were incubated for 30 min with 10-40 µM compound 1h or DMSO, then LPS (1 µg/ml) was added and incubation continued for 20 min, then levels of phosphorylated and total IKK-α and IκB-α were measured by Western blotting. (C) RAW 264.7 macrophages or (D) J774A.1 macrophages (both 5 × 10^5/ml; 1 ml) were treated as in A and B, then nuclear translocation of NF-κB was analyzed by ELISA. (E) RAW-Blue^TM cells (5 × 10^5/ml; 1 ml) were incubated for 30 min with 2.5-40 µM compound 1h or DMSO, then LPS (1 µg/ml) was added and incubation continued for 24 h, then SEAP activity was measured by the QUANTI-Blue^TM assay and expressed as a percentage of that in the absence of compound 1h. In (A) and (B), the results are representative of those obtained in three different experiments. In (C-E), the data are expressed as the mean ± SD for three separate experiments. *, **, and *** indicate a significant difference at the level of p < 0.05, p < 0.01, and p < 0.001, respectively, compared to the DMSO/LPS group.
For orientation: A western blot detects proteins with antibodies after separation by electrophoresis.

The subject of assay [2] is LPS-activated J774A.1 macrophages. The assay is described as above. It counts as cell-based, murine. Conditions: J774A.1, 10-40 µM 30 min, LPS 20 min. How it is done:
as §1, §2, §3, §4

Assay [3] deals with NLRP3 inflammasome in LPS+ATP-activated peritoneal macrophages. Description: NLRP3 inflammasome-mediated IL-1β secretion (ELISA). Format: cell-based, mouse. The conditions noted are these: compound 10-40 µM 30 min before LPS 5.5 h, then ATP 5 mM 30 min. How it is done:
The effects of the test samples on IL-1β, TNF-α, and IL-6 production were measured by ELISA according to the manufacturer’s instructions. In brief, 50 µl of biotinylated antibody reagent and 50 µl of supernatant were added to a stripwell plate precoated with anti-mouse IL-1β, TNF-α, or IL-6 antibodies, which was then incubated at room temperature for 2 h. After washing the plate three times with washing buffer, 100 µl of diluted streptavidin-HRP concentrate was added to each well and the plate incubated at room temperature for 30 min. […] After addition of 100 µl of stop solution to each well, the absorbance at 450 nm of each well was measured on a microplate reader. […]
Figure 4 Effect of compound 1h on NLRP3 inflammasome activation in LPS+ATP-activated J774A.1 macrophages. (A) J774A.1 macrophages (1 × 10^6/ml; 1 ml) or (B) peritoneal macrophages (1 × 10^5/ml; 1 ml) were incubated with 10-40 µM compound 1h or DMSO for 30 min, then LPS (1 µg/ml) was added and incubation continued for 5.5 h, then the cells were stimulated with ATP (5 mM) for an additional 30 min, then IL-1β in the culture medium was measured by ELISA (A, upper panel; B) and levels of active caspase-1 (p10) (A, lower panel) measured by Western blotting. […]
A general note: In an ELISA, binding on a coated surface is turned into a signal by an enzyme label.

Structures are written as SMILES.

In the case of `O=c1cc(O)cc(/C=C/C=C/C=C/C=C/c2[nH]ccc2Cl)o1` [compound 1h], in assay [1], the IκB-α degradation result is “had a inhibitory effect on IκB-α degradation”; the NF-κB nuclear translocation result is on record as “inhibited NF-κB nuclear translocation”; the “Phosphorylation of IKK-α and IκB-α” value was “inhibited phosphorylation of IKK-α and IκB-α in a dose-dependent manner”. In assay [2], the IκB-α degradation entry was “had a inhibitory effect on IκB-α degradation”; the NF-κB nuclear translocation entry was “inhibited NF-κB nuclear translocation”; the “Phosphorylation of IKK-α and IκB-α” value was “inhibited phosphorylation of IKK-α and IκB-α in a dose-dependent manner”. In addition, in assay [3], the IL-1β secretion entry was “inhibited IL-1β secretion by primary peritoneal macrophages”.
